According to paper PMC10291553, “Exploring Structure–Activity Relationships in Photodynamic Therapy Anticancer Agents Based on Ir(III)-COUPY Conjugates” (Journal of Medicinal Chemistry, 2023):

Experiments:
[1] = parameters: method as in earlier work; details: previously-reported parent compounds, cited from earlier work; for singlet oxygen quantum yield at 355 nm, ACN / singlet oxygen quantum yield at 355 nm, DCM / singlet oxygen quantum yield at 355 nm, PBS: excitation 355 nm
A2780cis cells [2] = assay: Cellular accumulation by ICP-MS; assay type: cell-based; details: 2 h treatment at 10 μM
Description: Briefly, A2780cis cells were seeded onto a 12-well plate (3 × 10^5 cells/well). Treatments with tested agents for 2 h were applied at 10 μM. Cisplatin was included for comparative purposes. Cells were then trypsinized, and pellets were counted. […] Three independent experiments were performed (n = 2 replicates).

A2780cis cells [3] = assay: Cell death induction (Annexin V/PI staining, FSC/SSC flow cytometry); assay type: cell-based; details: 10 μM; for mode of cell death (Annexin V/Propidium Iodide): 1 h + 1 h 520 nm, 24 h recovery; for secondary cell population with low FSC/SSC ratios (non-viable morphology): 1 h, 520 nm 1 h
Description: Cell death induction was evaluated using the Annexin V-FITC/Propidium iodide (AV/PI) dual staining method. Briefly, A2780cis cells were seeded in 12-well plates at a density of 2 × 10^5 cells/well and incubated overnight at 310 K. Tested compounds (10 μM) were added, following the described treatment schedule (1 h incubation + 1 h irradiation with 520 nm light). Irradiated, non-treated cells served as the control group. After 24 h of the drug-free recovery period, cells were harvested by trypsinization, washed with PBS and centrifuged, and the pellets were resuspended in 200 μL of a binding buffer as instructed by the manufacturer (Cayman). The resuspended cell solution was left at room temperature in the dark for 15 min before analysis by flow cytometry (FACSCalibur BecktonDickinson; 10^4 events acquired per sample). Cells were visualized using λexc = 488 channels and registered at 525 nm and 620 nm for Annexin V and propidium iodide in FL1 and FL2 channels, respectively. Cell populations were classified as follows: AV^-/PI^- (viable cells); AV^-/PI^+ (necrotic cells); AV^+/PI^- and AV^+/PI^+ (apoptotic cells). Alternatively, A2780cis cells were subjected to flow cytometry after phototreatments and morphological changes were analyzed using FSC and SSC contour plots. Data were analyzed using FlowJo software. Three independent experiments were performed.

A2780cis MCTS = assay: 3D multicellular tumor spheroid growth inhibition; assay type: cell-based; details: 10 μM, 4 h incubation; for spheroid shrinkage compared to irradiated controls: 1 h 520 nm; for tumor growth of A2780cis spheres after PDT treatment: 1 h 520 nm on day 3, followed 7 days
Description: Briefly, a single suspension of A2780cis cells at a density of 5 × 10^3 cells/well in complete RPMI medium was dispatched onto 96-well Corning microplates with ultralow attachment surface coating. The plates were covered and transferred to an incubator at 310 K with a 5% CO2 atmosphere. After 3 days post-seeding, uniform MCTSs were formed, which was confirmed using an inverted Zeiss AXIO observer 7 microscope. Cell media of MCTSs was changed by replacing 50% with fresh cell media and allowed to grow for 3 days. On day 3, MTCS was incubated with tested agents (10 μM) for 4 h and then irradiated with 520 nm light for 1 h. Treatments were then carefully removed, and fresh media was added. The integrity, radius, size, and volume of the MCTSs were monitored using a DMi1 inverted phase contrast microscope (Leica Microsystems) over 7 days. The radius of the tumorspheres was measured using Fiji software, and the volume was calculated using the following equation: V = 4/3πr^3.

[4] = Superoxide anion radical generation using DHR123; assay type: physicochemical; details: 10 μM in PBS (0.2% DMSO); green light 505 nm
Description: All compounds (10 μM) were prepared in PBS (0.2% DMSO). To this solution, DHR123 was added so that its final concentration was 10 μM. Then, the samples were irradiated in 1.0 × 0.5 cm cuvette by green light (505 nm centered LED) for indicated time intervals. Immediately, the fluorescence spectra were collected by using a Photon Technology International (PTI) fluorimeter. The excitation wavelength was set to 500 nm, the excitation and emission slit widths were 2 nm, and the integration time was set to 1 s.

Question: For CCN(CC)c1ccc2c(c1)O/C(=C(/C#N)c1cc[n+](C)cc1)C=C2C [1a], which “singlet oxygen quantum yield at 355 nm, ACN” value ([1]; ACN) is on record?
Answer: < 0.01

Question: And the “singlet oxygen quantum yield at 532 nm, ACN” value ([1]; ACN, excitation 532 nm)?
Answer: < 0.01

Question: And the “singlet oxygen quantum yield at 355 nm, DCM” value ([1]; DCM)?
Answer: < 0.01

Question: And the “singlet oxygen quantum yield at 532 nm, DCM” value ([1]; DCM, excitation 532 nm)?
Answer: 0.03

Question: And the “singlet oxygen quantum yield at 355 nm, PBS” value ([1]; PBS)?
Answer: 0

Question: And the “singlet oxygen quantum yield at 532 nm, PBS” value ([1]; PBS, excitation 532 nm)?
Answer: < 0.01

Question: For CCCCn1c2[n+](c3cc(C(=O)OC)ccc31)[Ir-3]13([c]4ccccc4-c4[nH]c5ccccc5[n+]41)([c]1ccccc1-c1[nH]c4ccccc4[n+]13)[n+]1c-2ccc2ccccc21 [2a], which “singlet oxygen quantum yield at 355 nm, ACN” value ([1]; ACN) is on record?
Answer: 0.42

Question: And the “singlet oxygen quantum yield at 355 nm, DCM” value ([1]; DCM)?
Answer: 0.23

Question: What about the “singlet oxygen quantum yield at 355 nm, PBS” value ([1]; PBS) of the same compound?
Answer: < 0.01

Question: What about the “Intracellular Ir levels” value (A2780cis cells [2]) of the same compound?
Answer: 276 ± 12 ng/10^6 cells

Question: For CCCCn1c2[n+](c3cc(C(=O)NCCCNC(=O)C[n+]4ccc(/C(C#N)=C5/C=C(C)c6ccc(N(CC)CC)cc6O5)cc4)ccc31)[Ir-3]13([c]4ccccc4-c4[nH]c5ccccc5[n+]41)([c]1ccccc1-c1[nH]c4ccccc4[n+]13)[n+]1c-2ccc2ccccc21 [3a], which “mode of cell death (Annexin V/Propidium Iodide)” value (“mode of cell death” below) (A2780cis cells [3]) is on record?
Answer: photoinduced necrotic cell death

Question: And the “secondary cell population with low FSC/SSC ratios (non-viable morphology)” value (A2780cis cells [3])?
Answer: vastly induced these secondary cell populations

Question: What about the “spheroid shrinkage compared to irradiated controls” value (A2780cis MCTS) of the same compound?
Answer: statistically significant shrank

Question: What about the “tumor growth of A2780cis spheres after PDT treatment” value (“tumor growth of A2780cis spheres” below) (A2780cis MCTS) of the same compound?
Answer: effectively blocked tumoral growth

Question: What does the source list for CCCCn1c2[n+](c3cc(C(=O)NCCCNC(=O)C[n+]4ccc(/C(C#N)=C5/C=C(C)c6ccccc6O5)cc4)ccc31)[Ir-3]13([c]4ccccc4-c4[nH]c5ccccc5[n+]41)([c]1ccccc1-c1[nH]c4ccccc4[n+]13)[n+]1c-2ccc2ccccc21 [3b]?
Answer: secondary cell population with low FSC/SSC ratios (non-viable morphology) (A2780cis cells [3]): did not produce such changes; superoxide anion radical generation (DHR123 fluorescence) [4]: highest maximum emission intensity of superoxide generation; tumor growth of A2780cis spheres after PDT treatment (A2780cis MCTS): did not show significant tumor inhibition effects

Question: Which results are given for CCCCn1c2[n+](c3cc(C(=O)NCCCNC(=O)C[n+]4ccc(/C(C#N)=C5/C=C(C)c6cc7c8c(c6O5)CCCN8CCC7)cc4)ccc31)[Ir-3]13([c]4ccccc4-c4[nH]c5ccccc5[n+]41)([c]1ccccc1-c1[nH]c4ccccc4[n+]13)[n+]1c-2ccc2ccccc21 [3c]?
Answer: mode of cell death (Annexin V/Propidium Iodide) (A2780cis cells [3]): photoinduced necrotic cell death; secondary cell population with low FSC/SSC ratios (non-viable morphology) (A2780cis cells [3]): vastly induced these secondary cell populations; superoxide anion radical generation (DHR123 fluorescence) [4]: fastest rates in superoxide generation; tumor growth of A2780cis spheres after PDT treatment (A2780cis MCTS): did not show significant tumor inhibition effects; Intracellular Ir levels (A2780cis cells [2]): 461 ± 74 ng/10^6 cells

Question: Which “mode of cell death” value (A2780cis cells [3]) does the source give for CCCCn1c2[n+](c3cc(C(=O)NCCCCCC(=O)NCCCNC(=O)C[n+]4ccc(/C(C#N)=C5/C=C(C)c6ccc(N(CC)CC)cc6O5)cc4)ccc31)[Ir-3]13([c]4ccccc4-c4[nH]c5ccccc5[n+]41)([c]1ccccc1-c1[nH]c4ccccc4[n+]13)[n+]1c-2ccc2ccccc21 [3d] here?
Answer: photoinduced necrotic cell death

Question: What about the “secondary cell population with low FSC/SSC ratios (non-viable morphology)” value (A2780cis cells [3]) of the same compound?
Answer: vastly induced these secondary cell populations

Question: And the “tumor growth of A2780cis spheres” value (A2780cis MCTS)?
Answer: effectively blocked tumoral growth

Question: For CCCCn1c2[n+](c3cc(C(=O)NC[C@H]4CC[C@H](C(=O)NCCCNC(=O)C[n+]5ccc(/C(C#N)=C6/C=C(C)c7ccc(N(CC)CC)cc7O6)cc5)CC4)ccc31)[Ir-3]13([c]4ccccc4-c4[nH]c5ccccc5[n+]41)([c]1ccccc1-c1[nH]c4ccccc4[n+]13)[n+]1c-2ccc2ccccc21 [3e], which “mode of cell death” value (A2780cis cells [3]) is on record?
Answer: photoinduced necrotic cell death

Question: What about the “secondary cell population with low FSC/SSC ratios (non-viable morphology)” value (A2780cis cells [3]) of the same compound?
Answer: vastly induced these secondary cell populations

Question: And the “spheroid shrinkage compared to irradiated controls” value (A2780cis MCTS)?
Answer: statistically significant shrank

Question: And the “tumor growth of A2780cis spheres” value (A2780cis MCTS)?
Answer: effectively blocked tumoral growth
